Laboratory results reported in patent US20100255580A1, “Differentiation of Human Embryonic Stem Cells” (LIFESCCAN, INC., priority 2007, published 2010).

Experiments:
[1] = test system: human embryonic stem cell line H9; experiment: Real-time PCR of marker gene expression, H9 on MEF (Examples 2-7); type: cell-based
Method: Cells were harvested at the time points indicated in FIG. 3 and assayed by PCR for the expression of genes shown (FIGS. 3, 4 and 5).
After this time interval, the cells were then treated for six days with combinations of retinoic acid and FGF as outlined in Example 2, then the culture medium was removed and replaced with medium comprising DMEM/F12 with 2% FBS, containing the γ-secretase inhibitors L-685,458 at 10 μM for three days.
Cells were continuously cultured for another 3 to 5 days in basal medium with retinoic acid at 1 μM, alone or with bFGF. RNA samples were harvested from cells at various time points along this process to help evaluate the directed differentiation of the cells. Furthermore, culture medium and factors were regularly removed and replenished throughout the differentiation protocol.
RNA extraction, purification, and cDNA synthesis. RNA samples were purified by binding to a silica-gel membrane (Rneasy Mini Kit, Qiagen, CA) in the presence of an ethanol-containing, high-salt buffer followed by washing to remove contaminants. The RNA was further purified using a TURBO DNA-free kit (Ambion, INC), and high-quality RNA was then eluted in water. Yield and purity were assessed by A260 and A280 readings on a spectrophotometer. cDNA copies were made from purified RNA using an ABI (ABI, CA) high capacity cDNA archive kit.
(§1) Real-time PCR amplification and quantitative analysis.
(§2) Final data were expressed relative to a calibrator sample.

[2] = test system: human embryonic stem cells (H9, H7) on MATRIGEL; experiment: Real-time PCR of definitive endoderm markers, DE protocol on […] or fibronectin (feeder-free); type: cell-based; conditions: for definitive endoderm markers (real-time PCR): H7 and H9, low serum+AA+/−Wnt ligands, 5 days
Method: as §1, §2
Differentiation of embryonic stem cells to definitive endoderm was carried out as previously described in Nature Biotechnology 23, 1534-1541 (December 2005). […] In all subsequent examples unless otherwise noted, this treatment regimen will be referred to as the definite endoderm (DE) protocol. In parallel, H9, H7, or H1 cells cultured on MEF feeders were also exposed to the same DE protocol outlined above.
At day 5, the cultures were analyzed by FACS for CXCR4, E-cadherin, CD9, CD99, and N-cadherin (CD56) expression and by real time PCR for SOX-17, SOX-7, Alpha-fetal protein (AFP), CXCR4, Brychyury (Bry), gooscecoid (GSC), HNF-3 beta, and GATA4. AFP and SOX-7 are regarded as visceral endoderm markers while GATA4, HNF-3beta and SOX-17 represent definite endoderm markers and GSC, Bry, and CXCR4 represent markers of primitive streak.
In some of the cultures 20 ng/ml Wnt-3a (Catalog #1324-WN-002, R&D Systems, MN), 20 ng/ml Wnt-5a (Catalog #654-WN-010, R&D Systems, MN), 25 ng/ml Wnt-7a (Catalog #3008-WN-025, R&D Systems, MN), or 25 ng/ml Wnt-5b (Catalog #3006-WN-025, R&D Systems, MN) was added throughout the five day treatment. FIG. 24 depicts phase contrast images of H9P46 definitive endoderm culture in the presence of high concentration of (a) AA or (b) AA+20 ng/ml Wnt-3a. FIG. 25 depicts the expression of CXCR4 by FACS at day 5 for H7P44, and H9P46 lines cultured on […] (1:30 dilution) and exposed to the DE protocol+Wnt-3a (FIG. 25, panels b and d) and −Wnt-3a (FIG. 25, panels a and c).
Control cultures were not treated with Wnt-3a. FIG. 27, panel a depicts the expression of CXCR4 by FACS at day 5 in the absence of Wnt-3a, b) 10 ng/ml Wnt-3a, c) 20 ng/ml Wnt-3a and d) 50 ng/ml Wnt-3a. In the absence of Wnt-3a the expression of CXCR4 was very low. […] Real-time PCR results (FIG. 28, panel a) also confirm this finding.
In a separate study, H9 p52 cells were plated on 1:30 low growth factor […]™. For the first 2 days of the DE protocol a range of Wnt3A doses was used: 10 ng/ml, 5 ng/ml and 1 ng/ml. […] The number of cells at the end of the experiment is noted in FIG. 28, panel c.
In order to confirm that the effect of Wnt-3a was through the Wnt pathway, a GSK-3 inhibitor was used to activate the downstream targets of Wnt, such as beta catenin. […] FIG. 29, panel a depicts the expression of CXCR4 by FACS at day 5 in the absence of Wnt-3a or GSK-3B inhibitor, b) +20 ng/ml Wnt-3a, c) +1000 nM GSK-3B inhibitor IX, d) +500 nM GSK-3B inhibitor IX, e) +100 nM GSK-3B inhibitor IX, f) +10 nM GSK-3B inhibitor IX, g) +100 nM GSK-3B inhibitor IX for days 1-2, and h) +10 nM GSK-3B inhibitor IX for days 1-2.
FIG. 31 panels a-d is for H9P49 cells and panels e-f is for H1P46 cells.
Results are expressed as fold increase over untreated cells. […] Results are expressed as fold increase over untreated cells.
H9P55 cells were grown and differentiated on human fibronectin or regular growth factor […]™ (BD Biosciences). lml of DMEM/F12 (Invitrogen/GIBCO) containing 1 ug/ml of human fibronectin (R&D systems, MN) was added to each well of 6 well tissue culture treated dish. Alternatively, regular growth factor […]™ was diluted 1:10 in DMEM/F12 and 1 ml of diluted […]™ was added to each well of 6 well tissue culture treated dish. Cells were passed with collagenase. […] Real-time PCR results (FIG. 39) confirm that formation of definitive endoderm was equivalent on fibronectin and […]™ coated plates.
To determine if the addition of Wnt-3a was causing the increase in differentiation, an inhibitor of Wnt-3 signaling was added to the cultures. […] H9 cells were cultured on plates coated with Growth Factor Reduced […] at a 1:30 dilution. The plates were coated with […] for 1 hr at room temperature. […]

[3] = test system: H9P44 cells; experiment: RT-PCR of definitive endoderm markers, growth factor combinations in low serum on MEFs (Example 22); type: cell-based, human; conditions: H9P44 on MEF; Day 3; normalized to Group 1 (control)
Method: as §1, §2
H9P44 cells were plated onto 6 well plates previously coated with mitomycin treated mouse embryonic fibroblasts (MEF). Cells were grown until 70 to 80% confluency in ES cell medium consisting of DMEM/F12 (Invitrogen/GIBCO) supplemented with 20% knockout serum replacement, 100 nM MEM nonessential amino acids, 0.5 mM beta-mercaptoethanol, 2 mM L-glutamine (all from Invitrogen/GIBCO) and 8 ng/ml human basic fibroblast growth factor (bFGF) (R&D Systems).
Growth factors were added to increasing concentration of FBS in a stepwise manner as indicated in the following regimen: • Day 0: 0% FBS in DMEM/F12 • Day 1: 0.5% FBS in DMEM/F12 • Day 2: 2% FBS in DMEM/F12. • Day 3: Cells were harvested for FACS analysis and RT-PCR.
All growth factors were purchased from R&D Systems, MN. A detailed description and concentration of growth factors for each treatment group is shown below.
For RT-PCR analysis, cells were analyzed for expression of selected panel of definitive endoderm markers.

CC(C)C[C@H](NC(=O)[C@H](Cc1ccccc1)C[C@@H](O)[C@H](Cc1ccccc1)NC(=O)OC(C)(C)C)C(=O)N[C@@H](Cc1ccccc1)C(N)=O [L-685,458, reference compound]
NeuroD1 expression ([1]; L-685,458 10 μM for three days): increased further | expression of Ngn3 versus activin A alone or retinoic acid with FGFs ([1]; L-685,458 10 μM for three days): approximately 50 fold | increase of insulin expression ([1]; L-685,458 10 μM for three days): 70 fold | expression of Hes-1 ([1]; L-685,458 10 μM, maximal inhibition on day three): decrease

fibronectin
formation of definitive endoderm (real-time PCR) ([2]; H9P55, fibronectin vs MATRIGEL coated plates): equivalent

Group 9: IL-4 (10 ng/ml)
CXCR4 relative expression [3]: 1.4 | Goosecoid relative expression [3]: 0.9 | HNF-3B relative expression [3]: 0.89 | Oct-4 relative expression [3]: 0.85 | SOX-2 relative expression [3]: 1.2 | Sox17 relative expression [3]: 1

B1: Wnt-5a: Wnt ligand (Catalog #654-WN-010, R&D Systems, MN) (protein, UniProt P41221 62-380, looked up)
Protein Wnt-5a: IIGAQPLCSQLAGLSQGQKKLCHLYQDHMQYIGEGAKTGIKECQYQFRHRRWNCSTVDNTSVFGRVMQIGSRETAFTYAVSAAGVVNAMSRACREGELSTCGCSRAARPKDLPRDWLWGGCGDNIDYGYRFAKEFVDARERERIHAKGSYESARILMNLHNNEAGRRTVYNLADVACKCHGVSGSCSLKTCWLQLADFRKVGDALKEKYDSAAAMRLNSRGKLVQVNSRFNSPTTQDLVYIDPSPDYCVRNESTGSLGTQGRLCNKTSEGMDGCELMCCGRGYDQFKTVQTERCHCKFHWCCYVKCKKCTEIVDQFVCK
definitive endoderm markers (real-time PCR) [2]: minimal impact

B2: BMP-4: BMP-4 (Catalog #314-BP-010, R&D Systems, MN) (protein, UniProt P12644 293-408, looked up)
Bone morphogenetic protein 4: SPKHHSQRARKKNKNCRRHSLYVDFSDVGWNDWIVAPPGYQAFYCHGDCPFPLADHLNSTNHAIVQTLVNSVNSSIPKACCVPTELSAISMLYLDEYDKVVLKNYQEMVVEGCGCR
mesoderm marker BRY ([2]; H9P53, BMP-4 25 ng/ml added to the DE protocol): induce formation

B3: Wnt-5b: Wnt ligand (Catalog #3006-WN-025, R&D Systems, MN) (protein, UniProt Q9H1J7 18-359, looked up)
Protein Wnt-5b: QLLTDANSWWSLALNPVQRPEMFIIGAQPVCSQLPGLSPGQRKLCQLYQEHMAYIGEGAKTGIKECQHQFRQRRWNCSTADNASVFGRVMQIGSRETAFTHAVSAAGVVNAISRACREGELSTCGCSRTARPKDLPRDWLWGGCGDNVEYGYRFAKEFVDAREREKNFAKGSEEQGRVLMNLQNNEAGRRAVYKMADVACKCHGVSGSCSLKTCWLQLAEFRKVGDRLKEKYDSAAAMRVTRKGRLELVNSRFTQPTPEDLVYVDPSPDYCLRNESTGSLGTQGRLCNKTSEGMDGCELMCCGRGYNQFKSVQVERCHCKFHWCCFVRCKKCTEIVDQYICK
definitive endoderm markers (real-time PCR) [2]: minimal impact

B4: Wnt-7a: Wnt ligand (Catalog #3008-WN-025, R&D Systems, MN) (protein, UniProt O00755 32-349, looked up)
Protein Wnt-7a: LGASIICNKIPGLAPRQRAICQSRPDAIIVIGEGSQMGLDECQFQFRNGRWNCSALGERTVFGKELKVGSREAAFTYAIIAAGVAHAITAACTQGNLSDCGCDKEKQGQYHRDEGWKWGGCSADIRYGIGFAKVFVDAREIKQNARTLMNLHNNEAGRKILEENMKLECKCHGVSGSCTTKTCWTTLPQFRELGYVLKDKYNEAVHVEPVRASRNKRPTFLKIKKPLSYRKPMDTDLVYIEKSPNYCEEDPVTGSVGTQGRACNKTAPQASGCDLMCCGRGYNTHQYARVWQCNCKFHWCCYVKCNTCSERTEMYTCK
definitive endoderm markers (real-time PCR) [2]: minimal impact

B5: DKK1: Wnt Inhibitor; inhibitor of Wnt-3 signaling (protein, UniProt O94907 32-266, looked up)
Dickkopf-related protein 1: TLNSVLNSNAIKNLPPPLGGAAGHPGSAVSAAPGILYPGGNKYQTIDNYQPYPCAEDEECGTDEYCASPTRGGDAGVQICLACRKRRKRCMRHAMCCPGNYCKNGICVSSDQNHFRGEIEETITESFGNDHSTLDGYSRRTTLSSKMYHTKGQEGSVCLRSSDCASGLCCARHFWSKICKPVLKEGQVCTKHRRKGSHGLEIFQRCYCGEGLSCRIQKDHHQASNSSRLHTCQRH
expression level of differentiation markers (CXCR4, GATA4, HNF-3beta, SOX17, goosecoid) ([2]; H9, 100 ng/ml DKK1 with 20 ng/ml Wnt3a and 100 ng/ml activin A, day 5): dramatically decrease
